These results are taken from patent US20210371899A1, “METHOD AND KIT FOR […], AND PLASMID, BACULOVIRUS, CELL AND METHOD OF PREPARING THE SAME FOR PESTICIDE DETECTIONS” (priority 2018, published 2021).

What is called IC50 is the concentration needed to halve the response being measured.

Where two headings read alike, the source gives them in different places.

In experiment [1] the target is T1, AChE-FL (full-length AChE Y408F displayed on Hi5 cells) (Drosophila melanogaster, UniProt P07140, R99G/Y408F).
T1 construct: honeybee mellitin signal peptide (HM) (N); expressed in transfected cells; host or cells: Trichoplusia ni High Five (Hi5) cells infected with recombinant baculovirus vAChE-FL, lyophilised in the plate
Nature of the experiment: Inhibition of cell-surface displayed AChE-FL (Ellman's method, ATCh/DTNB, 412 nm). Type of experiment: biochemical. How it is done: (§1) Hi5 cells were infected with AChE-FL-bac (FL), AChE-6MC-bac (6MC) or WT-bac (WT) respectively, for 3 days. After the removal of media, the cells were subjected to a 5-hour lyophilization in the 96-well plates. Two OP and two CB insecticide compounds were serial-diluted and added to the infected cell samples, as well as a 100 mU/mL AChE (ST, Abcam) in 96-well plates and the commercialized AChE (Sichen) in cuvette for a further comparison. AChE activities were analyzed for all these sample in order to determine the sensitivities of these AChE to different insecticides. DMSO with different concentrations in DPBS were added to determine the background effects. Pesticides tested are: (a) paraoxon ethyl, (b) malaoxon, (c) carbofuran (d) carbaryl.
(§2) AChE activity was determined by Ellman's method. For each 96-well, 50 μl of 3 mM ATCh and 50 μl of 3 mM Ellman's reagent DTNB solution was added. After 10 minutes of incubation at room temperature, average absorbance at 412 nm was determined. […] The diluted solutions were then added individually into 96-well microplates with Hi5 cells infected by the seven recombinant viruses (vDmAChE, vHsAChE, vRnAChE, vAmAChE, vSfAChE, DamAChE, and vBdAChE). After incubation for 10 minutes, substrate ATCh and DTNB solution were added to the reaction mixture. After 10 minutes of incubation at room temperature, residual activity was determined with a microplate reader at 412 nm.
(§3) The acetylcholinesterase stock solution was diluted into 50 units/mL in assay buffer at ratio 1:50 to generate 1000 mU/mL acetylcholinesterase standard solution. Then, the 1000 mU/mL acetylcholinesterase standard solution was further diluted into 300, 100, 30, 10, 3, 1 and 0 mU/mL for determining the average absorbance of each standard. The reading of each standard was plotted as a function of the amount of acetylcholinesterase to establish a standard curve, and the corresponding amount of AChE in each test samples was calculated by the derived linear equation. […]
(§4) The remaining activity of AChE is evaluated by the following equation: […]
(§5) In which, ΔA0 indicates the change of absorbance of the positive control, and ΔAS indicates the change of absorbance of the applied pesticide incubated solution.
(§6) As for a comparison, the test results using the most common AChE insecticide diagnostic kit in Taiwan sold by Sichen Inc. were also included, and the IC50 for all of the test samples were also calculated (Table 1). For Sichen, since they acquire the AChE from fly, also they have to use cuvette (1 mL) for measurement, thus high quantity of AChE should be used. […] 96-well plate was applied, which requires only 100 μL solution for detection, and easily to handle, and can be read by bare eye for the detection of residue pesticides.

The target in experiment [2] is T2, AChE-6MC (truncated AChE Y408F fused with TM and CTD of baculovirus GP64, displayed on Hi5 cells) (Drosophila melanogaster, UniProt P07140, R99G/Y408F).
T2 construct: honeybee mellitin signal peptide (HM) (N); expressed in transfected cells; host or cells: Trichoplusia ni High Five (Hi5) cells infected with recombinant baculovirus vAChE-6MC, lyophilised in the plate
Nature of the experiment: Inhibition of cell-surface displayed AChE-6MC (Ellman's method, ATCh/DTNB, 412 nm). Type of experiment: biochemical. Here is the method:
as §1, §2, §3, §4, §5, §6

In experiment [3] the target is AChE (Abcam) (UniProt O42275). Nature of the experiment: Inhibition of purified standard AChE (Abcam). Type of experiment: biochemical.
Protocol: AChE activity was determined by Ellman's method. For each 96-well, 50 μl of 3 mM ATCh and 50 μl of 3 mM Ellman's reagent DTNB solution was added. After 10 minutes of incubation at room temperature, average absorbance at 412 nm was determined. […] The diluted solutions were then added individually into 96-well microplates with Hi5 cells infected by the seven recombinant viruses (vDmAChE, vHsAChE, vRnAChE, vAmAChE, vSfAChE, DamAChE, and vBdAChE). […] After 10 minutes of incubation at room temperature, residual activity was determined with a microplate reader at 412 nm.
The target in experiment [4] is commercialized AChE (Sichen) (Musca domestica, UniProt Q7YWJ9). Nature of the experiment: Inhibition of commercial AChE kit (Sichen), cuvette. Type of experiment: biochemical, fly. How it is done: as §1
Acetylcholinesterase Assay Kit (standard AChE) was purchased from Abcam. Rapid Bioassay of Pesticides Residues Reagent Kit (commercial AChE) was purchased from Sichen.
The acetylcholinesterase stock solution was diluted into 50 units/mL in assay buffer at ratio 1:50 to generate 1000 mU/mL acetylcholinesterase standard solution. Then, the 1000 mU/mL acetylcholinesterase standard solution was further diluted into 300, 100, 30, 10, 3, 1 and 0 mU/mL for determining the average absorbance of each standard. The reading of each standard was plotted as a function of the amount of acetylcholinesterase to establish a standard curve, and the corresponding amount of AChE in each test samples was calculated by the derived linear equation. To calculate the inhibition of AChEs activity (%), vCont-Bac infected cells (without expression of AChE on the surface) served as the negative control, whereas Abcam purified protein, Sichen commercial protein, vAChE-FL and vAChE-6MC infected cells without pesticide incubation served as the positive control. The activity of the positive control was considered 100%.
The remaining activity of AChE is evaluated by the following equation:
Inhibition of AChEs activity (%)(ΔA0−ΔAS)/ΔA0)×100
as §5
As for a comparison, the test results using the most common AChE insecticide diagnostic kit in Taiwan sold by Sichen Inc. were also included, and the IC50 for all of the test samples were also calculated (Table 1). For Sichen, since they acquire the AChE from fly, also they have to use cuvette (1 mL) for measurement, thus high quantity of AChE should be used. […] In the present application, however, there are no need for fly rearing and no need for AChE purification. 96-well plate was applied, which requires only 100 μL solution for detection, and easily to handle, and can be read by bare eye for the detection of residue pesticides.

Where [5] appears, read: Hi5 cells infected with vAChE-FL, 3 days, lyophilized 5 h, 96-well plate, read-out: IC50 of OP and CB towards AChEs, AChE-FL.
Where [6] appears, read: Hi5 cells infected with vAChE-6MC, 3 days, lyophilized 5 h, 96-well plate, read-out: IC50 of OP and CB towards AChEs, AChE-6MC.
Where [7] appears, read: commercialized AChE kit, cuvette (1 mL), read-out: IC50 of OP and CB towards AChEs, Sichen.
The mark [8] stands for this setting: read-out: IC50 of OP and CB towards AChEs, Abcam; 100 mU/mL purified AChE standard, 96-well plate.

As for `CNC(=O)Oc1cccc2c1OC(C)(C)C2` [Carbofuran, carbofuran], the IC50 was 48000 nM in experiment [1] (setting [5]); 4500 nM in experiment [2] (setting [6]); 540 nM in experiment [3] (100 mU/mL purified AChE standard, 96-well plate; read-out: IC50 of OP and CB towards AChEs, Abcam); 2800 nM in experiment [4] (setting [7]).
For `CCOC(=O)CC(SP(=O)(OC)OC)C(=O)OCC` (stereo not drawn) [Malaoxon, malaoxon], the IC50 came out at 560 nM in experiment [1], 62 nM in experiment [2], 820 nM in experiment [3] (setting [8]) and 950 nM in experiment [4].
For `CNC(=O)Oc1cccc2ccccc12` [Carbaryl, carbaryl], the IC50 in experiment [1] is 6800 nM; in experiment [2], 650 nM; in experiment [3] (setting [8]), 6500 nM; in experiment [4], 5900 nM.
As for `CCOP(=O)(OCC)Oc1ccc([N+](=O)[O-])cc1` [Paraoxon ethyl, paraoxon ethyl], the IC50 in experiment [1] (setting [5]) came out at 490 nM; in experiment [2] (setting [6]) it was 55 nM; in experiment [4] (setting [7]), 2300 nM.
